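Cells were grown in 96-well plates and exposed to each compound for 48 hours at five concentrations; endpoints were interpolated linearly between bracketing concentrations, or set to the highest concentration if not reached. GI50 is the concentration that inhibits growth by half. Definition used: TGI = concentration required for complete inhibition of growth.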
Experiments:
Assay in all cases: inhibition of tumour cell growth, NCI panel, 48 h
HOP-92 NSCLC = system: HOP-92 NSCLC
NCI-H522 lung = system: NCI-H522 lung
SNB-75 CNS = system: SNB-75 CNS
HOP-62 NSCLC = system: HOP-62 NSCLC
OVCAR-5 ovarian = system: OVCAR-5 ovarian
MDA-MB-231 breast = system: MDA-MB-231 breast
A549 NSCLC = system: A549 NSCLC
SF-539 CNS = system: SF-539 CNS
TK-10 renal = system: TK-10 renal
HL-60(TB) leukemia = system: HL-60(TB) leukemia
LOX IMVI melanoma = system: LOX IMVI melanoma
MCF7 breast = system: MCF7 breast
IGROV1 ovarian = system: IGROV1 ovarian
786-0 renal = system: 786-0 renal
ACHN renal = system: ACHN renal
DU-145 prostate = system: DU-145 prostate
CCRF-CEM leukemia = system: CCRF-CEM leukemia
COLO 205 colon = system: COLO 205 colon
K-562 leukemia = system: K-562 leukemia
PC-3 prostate = system: PC-3 prostate
SR leukemia = system: SR leukemia
SF-295 CNS = system: SF-295 CNS
NCI/ADR-RES ovarian = system: NCI/ADR-RES ovarian
HCT-116 colon = system: HCT-116 colon
BT-549 breast = system: BT-549 breast
CAKI-1 renal = system: CAKI-1 renal
UACC-257 melanoma = system: UACC-257 melanoma
EKVX NSCLC = system: EKVX NSCLC
HCC-2998 colon = system: HCC-2998 colon
KM12 colon = system: KM12 colon
HS 578T breast = system: HS 578T breast
SK-MEL-28 melanoma = system: SK-MEL-28 melanoma
SK-MEL-5 melanoma = system: SK-MEL-5 melanoma
NCI-H226 lung = system: NCI-H226 lung
RPMI-8226 leukemia = system: RPMI-8226 leukemia
MALME-3M melanoma = system: MALME-3M melanoma
SK-MEL-2 melanoma = system: SK-MEL-2 melanoma
SF-268 CNS = system: SF-268 CNS
SW-620 colon = system: SW-620 colon
HT29 colon = system: HT29 colon
MOLT-4 leukemia = system: MOLT-4 leukemia
OVCAR-8 ovarian = system: OVCAR-8 ovarian
T-47D breast = system: T-47D breast
A498 renal = system: A498 renal
RXF 393 renal = system: RXF 393 renal
NCI-H460 lung = system: NCI-H460 lung
HCT-15 colon = system: HCT-15 colon
UACC-62 melanoma = system: UACC-62 melanoma
OVCAR-3 ovarian = system: OVCAR-3 ovarian
NCI-H23 lung = system: NCI-H23 lung
U251 CNS = system: U251 CNS
M14 melanoma = system: M14 melanoma
SNB-19 CNS = system: SNB-19 CNS
UO-31 renal = system: UO-31 renal
MDA-MB-435 = system: MDA-MB-435
SN12C renal = system: SN12C renal
SK-OV-3 ovarian = system: SK-OV-3 ovarian
OVCAR-4 ovarian = system: OVCAR-4 ovarian

## Cl.Fc1c[c-]c(-c2ccccn2)c(F)c1.[Pt].c1ccc(P(c2ccccc2)C([PH+](c2ccccc2)c2ccccc2)[PH+](c2ccccc2)c2ccccc2)cc1
HOP-92 NSCLC
  GI50: 1.7 µM
  TGI: 5.62 µM
NCI-H522 lung
  GI50: 2.62 µM
  TGI: 9.86 µM
SNB-75 CNS
  GI50: 2.01 µM
  TGI: 9.5 µM
HOP-62 NSCLC
  GI50: 2.63 µM
  TGI: 9.78 µM
OVCAR-5 ovarian
  GI50: 2.97 µM
  TGI: > 100 µM
MDA-MB-231 breast
  GI50: 2.28 µM
  TGI: 7.06 µM
A549 NSCLC
  GI50: 2.84 µM
  TGI: 20.7 µM
SF-539 CNS
  GI50: 3.18 µM
  TGI: 11.3 µM
TK-10 renal
  GI50: 2.67 µM
  TGI: 11.9 µM
HL-60(TB) leukemia
  GI50: 1.95 µM
  TGI: 6.07 µM
LOX IMVI melanoma
  GI50: 3.35 µM
  TGI: 13.5 µM
MCF7 breast
  GI50: 2.95 µM
  TGI: > 100 µM
IGROV1 ovarian
  GI50: 3.16 µM
  TGI: > 100 µM
786-0 renal
  GI50: 3.34 µM
  TGI: 20.6 µM
ACHN renal
  GI50: 3.05 µM
  TGI: > 100 µM
DU-145 prostate
  GI50: 3.57 µM
  TGI: 20.1 µM
CCRF-CEM leukemia
  GI50: 3.26 µM
  TGI: > 100 µM
COLO 205 colon
  GI50: 1.87 µM
  TGI: 3.92 µM
K-562 leukemia
  GI50: 2.44 µM
  TGI: > 100 µM
PC-3 prostate
  GI50: 2.17 µM
  TGI: > 100 µM
SR leukemia
  GI50: 2.61 µM
  TGI: > 100 µM
SF-295 CNS
  GI50: 3.46 µM
  TGI: 14.7 µM
NCI/ADR-RES ovarian
  GI50: 34.9 µM
  TGI: > 100 µM
HCT-116 colon
  GI50: 2.72 µM
  TGI: 12.3 µM
BT-549 breast
  GI50: 3.24 µM
  TGI: 17.1 µM
CAKI-1 renal
  GI50: 2.19 µM
  TGI: 7.41 µM
UACC-257 melanoma
  GI50: 2.75 µM
  TGI: 8.09 µM
EKVX NSCLC
  GI50: 3.1 µM
  TGI: > 100 µM
HCC-2998 colon
  GI50: 4.43 µM
  TGI: 29.6 µM
KM12 colon
  GI50: 3.55 µM
  TGI: 14.7 µM
HS 578T breast
  GI50: 2.92 µM
  TGI: 39 µM
SK-MEL-28 melanoma
  GI50: 5.02 µM
  TGI: 26.9 µM
SK-MEL-5 melanoma
  GI50: 2.08 µM
  TGI: 4.53 µM
NCI-H226 lung
  GI50: 2.78 µM
  TGI: 32.8 µM
RPMI-8226 leukemia
  GI50: 1.68 µM
  TGI: 5.51 µM
MALME-3M melanoma
  GI50: 2.5 µM
  TGI: 7.3 µM
SK-MEL-2 melanoma
  GI50: 2.54 µM
  TGI: 6.7 µM
SF-268 CNS
  GI50: 3.22 µM
  TGI: 25.1 µM
SW-620 colon
  GI50: 3.19 µM
  TGI: 14.6 µM
HT29 colon
  GI50: 3.23 µM
  TGI: 21.6 µM
MOLT-4 leukemia
  GI50: 2.54 µM
  TGI: > 100 µM
OVCAR-8 ovarian
  GI50: 2.83 µM
  TGI: 38.5 µM
T-47D breast
  GI50: 2.25 µM
  TGI: 8.5 µM
A498 renal
  GI50: 2.59 µM
  TGI: 7.47 µM
RXF 393 renal
  GI50: 3.09 µM
  TGI: 15.1 µM
NCI-H460 lung
  GI50: 3.08 µM
  TGI: 11.5 µM
HCT-15 colon
  GI50: 6.88 µM
  TGI: > 100 µM
UACC-62 melanoma
  GI50: 3.03 µM
  TGI: 18 µM
OVCAR-3 ovarian
  GI50: 2.68 µM
  TGI: 8.06 µM
NCI-H23 lung
  GI50: 3.06 µM
  TGI: 61.1 µM
U251 CNS
  GI50: 3.23 µM
  TGI: 13.6 µM
M14 melanoma
  GI50: 3.13 µM
  TGI: 53 µM
SNB-19 CNS
  GI50: 4.88 µM
  TGI: > 100 µM
UO-31 renal
  GI50: 2.27 µM
  TGI: 7.65 µM
MDA-MB-435
  GI50: 3.4 µM
  TGI: 16 µM
SN12C renal
  GI50: 2.91 µM
  TGI: 15.4 µM

## COc1ccc2cc(-c3cc4c(oc3=O)-c3ccccc3OC4O)c(=O)oc2c1 (stereo not given)
HOP-92 NSCLC
  GI50: 10.2 µM
  TGI: 24.7 µM
NCI-H522 lung
  GI50: 17 µM
  TGI: 37.6 µM
SNB-75 CNS
  GI50: 5.73 µM
  TGI: 23.4 µM
SK-OV-3 ovarian
  GI50: 17.1 µM
  TGI: 32.3 µM
HOP-62 NSCLC
  GI50: 20.3 µM
  TGI: 35.4 µM
OVCAR-5 ovarian
  GI50: 17.3 µM
  TGI: 31.3 µM
MDA-MB-231 breast
  GI50: 17.9 µM
  TGI: 36.1 µM
A549 NSCLC
  GI50: 14.5 µM
  TGI: 28.2 µM
OVCAR-4 ovarian
  GI50: 12.3 µM
  TGI: 28.9 µM
SF-539 CNS
  GI50: 15.2 µM
  TGI: 29.2 µM
TK-10 renal
  GI50: 19.9 µM
  TGI: 37 µM
HL-60(TB) leukemia
  GI50: > 100 µM
  TGI: > 100 µM
LOX IMVI melanoma
  GI50: 15.9 µM
  TGI: 31.2 µM
MCF7 breast
  GI50: 17.1 µM
  TGI: 34.1 µM
IGROV1 ovarian
  GI50: 16.9 µM
  TGI: 34 µM
786-0 renal
  GI50: 25.4 µM
  TGI: 41.5 µM
ACHN renal
  GI50: 16.1 µM
  TGI: 30.1 µM
DU-145 prostate
  GI50: 14.3 µM
  TGI: 27.4 µM
CCRF-CEM leukemia
  GI50: 19.7 µM
  TGI: 64.7 µM
COLO 205 colon
  GI50: 16.1 µM
  TGI: 33.4 µM
K-562 leukemia
  GI50: 92.9 µM
  TGI: > 100 µM
PC-3 prostate
  GI50: 14.7 µM
  TGI: 28.3 µM
SR leukemia
  GI50: 79.7 µM
  TGI: > 100 µM
SF-295 CNS
  TGI: 15.3 µM
NCI/ADR-RES ovarian
  GI50: 17.7 µM
  TGI: 31.7 µM
HCT-116 colon
  GI50: 20.2 µM
  TGI: 34.7 µM
BT-549 breast
  GI50: 14.7 µM
  TGI: 28.2 µM
CAKI-1 renal
  GI50: 14.9 µM
  TGI: 29.8 µM
UACC-257 melanoma
  GI50: 16.2 µM
  TGI: 32.3 µM
EKVX NSCLC
  GI50: 15.2 µM
  TGI: 32.8 µM
KM12 colon
  GI50: 18.2 µM
  TGI: 34.9 µM
HS 578T breast
  GI50: 20.8 µM
  TGI: 45.1 µM
SK-MEL-28 melanoma
  GI50: 16.7 µM
  TGI: 32.2 µM
SK-MEL-5 melanoma
  GI50: 13.2 µM
  TGI: 26.9 µM
NCI-H226 lung
  GI50: 16.1 µM
  TGI: 34 µM
RPMI-8226 leukemia
  GI50: 13.4 µM
  TGI: 58.7 µM
MALME-3M melanoma
  GI50: 19.3 µM
  TGI: 36.8 µM
SK-MEL-2 melanoma
  GI50: 15.6 µM
  TGI: 31.4 µM
SF-268 CNS
  GI50: 16.9 µM
  TGI: 33.8 µM
SW-620 colon
  GI50: 15.9 µM
  TGI: 29.7 µM
HT29 colon
  GI50: 17.1 µM
  TGI: 31.5 µM
MOLT-4 leukemia
  GI50: 50 µM
  TGI: > 100 µM
OVCAR-8 ovarian
  GI50: 17.5 µM
  TGI: 35.3 µM
T-47D breast
  GI50: 13 µM
  TGI: 33.6 µM
A498 renal
  GI50: 17.3 µM
  TGI: 33.5 µM
RXF 393 renal
  GI50: 18.7 µM
  TGI: 36.4 µM
NCI-H460 lung
  GI50: 16.7 µM
  TGI: 34.7 µM
HCT-15 colon
  GI50: 15.8 µM
  TGI: 32 µM
UACC-62 melanoma
  GI50: 16.2 µM
  TGI: 30.4 µM
OVCAR-3 ovarian
  GI50: 15.4 µM
  TGI: 30.6 µM
NCI-H23 lung
  GI50: 17.7 µM
  TGI: 33.4 µM
U251 CNS
  GI50: 16.4 µM
  TGI: 31.4 µM
M14 melanoma
  GI50: 22.1 µM
  TGI: 43.8 µM
SNB-19 CNS
  GI50: 16.2 µM
  TGI: 30.5 µM
UO-31 renal
  GI50: 17.5 µM
  TGI: 33.4 µM
MDA-MB-435
  GI50: 16.4 µM
  TGI: 36 µM
SN12C renal
  GI50: 17.2 µM
  TGI: 32.2 µM

— PubChem BioAssay (NCI)
